What was measured:
[1] = test system: pigweed; experiment: Test B pre/postemergence pigweed; assay type: in vivo, Amaranthus retroflexus
Procedure, shortened: (§1)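 Test chemicals in a non-phytotoxic solvent mixture with surfactant were sprayed preemergence onto planted seeds and postemergence onto plants 2 to 18 cm tall (1- to 4-leaf stage). After twelve to sixteen days in a greenhouse, injury was visually rated against untreated controls from 0 (no effect) to 10 (complete control).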

[2] = test system: smallflower flatsedge; experiment: Test B flood test smallflower flatsedge; assay type: in vivo, Cyperus difformis
Procedure, shortened: (§2)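 Read-out is a visual response score from 0 (no effect) to 10 (complete control), assigned by comparison with untreated controls. Treatment was applied at the 2-leaf stage, and plants stayed in the greenhouse for twelve to sixteen days before scoring.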

[3] = test system: purple nutsedge; experiment: Test B pre/postemergence purple nutsedge; assay type: in vivo, Cyperus rotundus
Procedure, shortened: as §1

[4] = test system: bamyardgrass; experiment: Test B flood test barnyardgrass; assay type: in vivo, Echinochloa crus-galli
Procedure, shortened: as §2

[5] = test system: crabgrass; experiment: Test B pre/postemergence crabgrass; assay type: in vivo, Digitaria sanguinalis
Procedure, shortened: as §1

[6] = test system: surinam grass; experiment: Test B pre/postemergence surinam grass; assay type: in vivo, Brachiaria decumbens
Procedure, shortened: as §1

[7] = test system: giant foxtail; experiment: Test B pre/postemergence giant foxtail; assay type: in vivo, Setaria faberii
Procedure, shortened: as §1

[8] = test system: morningglory; experiment: Test B pre/postemergence morningglory; assay type: in vivo, Ipomoea hederacea
Procedure, shortened: as §1

[9] = test system: soybean; experiment: Test B pre/postemergence soybean; assay type: in vivo, Glycine max
Procedure, shortened: as §1

[10] = test system: rice; experiment: Test B flood test rice; assay type: in vivo, Oryza sativa
Procedure, shortened: as §2

[11] = test system: sugar beet; experiment: Test B pre/postemergence sugar beet; assay type: in vivo, Beta vulgaris
Procedure, shortened: as §1

[12] = test system: rape; experiment: Test B pre/postemergence rape; assay type: in vivo, Brassica napus
Procedure, shortened: as §1

[13] = test system: duck salad; experiment: Test B flood test duck salad; assay type: in vivo, Heteranthera limosa
Procedure, shortened: as §2

[14] = test system: cocklebur; experiment: Test B pre/postemergence cocklebur; assay type: in vivo, Xanthium strumarium
Procedure, shortened: as §1

[15] = test system: corn; experiment: Test B pre/postemergence corn; assay type: in vivo, Zea mays
Procedure, shortened: as §1

[16] = test system: wild oat; experiment: Test B pre/postemergence wild oat; assay type: in vivo, Avena fatua
Procedure, shortened: as §1

[17] = Postemergence, Rate 62 g/ha, scale 0 to 10, 0 is no effect, 10 is complete control
[18] = Postemergence, Rate 250 g/ha, scale 0 to 10, 0 no effect, 10 complete control
[19] = Preemergence, Rate 62 g/ha, scale 0 to 10 (0 no effect, 10 complete control)
[20] = Preemergence, Rate 125 g/ha, scale 0 to 10 (0 no effect, 10 complete control)
[21] = Preemergence, Rate 250 g/ha, scale of 0 to 10 where 0 is no effect and 10 is complete control
[22] = Preemergence, Rate 500 g/ha, scale 0 (no effect) to 10 (complete control)
[23] = Rate 125 g/ha, Postemergence, scale 0 to 10, 0 no effect, 10 complete control
[24] = Rate 500 g/ha, Postemergence, scale 0 to 10, 0 no effect, 10 complete control
[25] = Rate 125 g/ha, Postemergence section (flood test species), scale 0 to 10, 0 no effect, 10 complete control
[26] = Rate 500 g/ha, listed under Postemergence (flood test species), scale 0 to 10, 0 no effect, 10 complete control
[27] = flood test, listed under Postemergence, Rate 250 g/ha, scale 0 to 10, 0 no effect, 10 complete control

Cc1nn(C)c(C)c1-n1c(=O)on(C(=O)N(c2ccc(F)cc2F)C(C)C)c1=O [Compound 76]
1: Soybean plant response rating [9, 23]
5: B. signalgrass plant response rating [6, 18] | Wild oats plant response rating [16, 24]
4: Redroot pigweed plant response rating [1, 24] | Plant response rating, Crabgrass [5, 20] | Crabgrass plant response rating [5, 23] | Giant foxtail plant response rating [7, 19] | Giant foxtail plant response rating [7, 23] | Morningglory plant response rating [8, 18] | Cocklebur plant response rating [14, 24] | Corn plant response rating [15, 22] | Plant response rating, Wild oats [16, 21] | Wild oats plant response rating [16, 22]
2: Crabgrass plant response rating [5, 17] | Plant response rating, B. signalgrass [6, 21] | Morningglory plant response rating [8, 23] | Soybean plant response rating [9, 18] | Soybean plant response rating [9, 24] | Sugarbeets plant response rating [11, 18] | Rape plant response rating [12, 24] | Plant response rating, Corn [15, 21] | Wild oats plant response rating [16, 18]
9: Crabgrass plant response rating [5, 24] | B. signalgrass plant response rating ([6]; Rate 500 g/ha, Postemergence, scale of 0 to 10 where 0 is no effect and 10 is complete control) | Plant response rating, Giant foxtail [7, 20] | Plant response rating, Giant foxtail [7, 21] | Giant foxtail plant response rating [7, 22] | Giant foxtail plant response rating [7, 24]
3: Plant response rating, Redroot pigweed [1, 21] | Crabgrass plant response rating [5, 19] | Giant foxtail plant response rating [7, 17] | Rice plant response rating [10, 26] | Rice plant response rating [10, 27] | Sugarbeets plant response rating [11, 24] | Cocklebur plant response rating [14, 18]
8: Redroot pigweed plant response rating [1, 22] | Crabgrass plant response rating [5, 18] | Plant response rating, Crabgrass [5, 21] | Crabgrass plant response rating [5, 22] | B. signalgrass plant response rating [6, 22]
7: Giant foxtail plant response rating [7, 18] | Morningglory plant response rating [8, 24]
0: Redroot pigweed plant response rating [1, 17] | Redroot pigweed plant response rating [1, 18] | Redroot pigweed plant response rating [1, 19] | Plant response rating, Redroot pigweed [1, 20] | Redroot pigweed plant response rating [1, 23] | S. Flatsedge plant response rating [2, 17] | S. Flatsedge plant response rating [2, 25] | S. Flatsedge plant response rating [2, 26] | S. Flatsedge plant response rating [2, 27] | Nutsedge plant response rating [3, 17] | Nutsedge plant response rating [3, 18] | Nutsedge plant response rating [3, 19] | Plant response rating, Nutsedge [3, 20] | Plant response rating, Nutsedge [3, 21] | Nutsedge plant response rating [3, 22] | Nutsedge plant response rating [3, 23] | Nutsedge plant response rating [3, 24] | Barnyardgrass plant response rating [4, 17] | Barnyardgrass plant response rating [4, 25] | Barnyardgrass plant response rating [4, 26] | Barnyardgrass plant response rating [4, 27] | B. signalgrass plant response rating [6, 17] | B. signalgrass plant response rating [6, 19] | Plant response rating, B. signalgrass [6, 20] | B. signalgrass plant response rating [6, 23] | Morningglory plant response rating [8, 17] | Morningglory plant response rating [8, 19] | Plant response rating, Morningglory [8, 20] | Plant response rating, Morningglory [8, 21] | Morningglory plant response rating [8, 22] | Soybean plant response rating [9, 17] | Soybean plant response rating [9, 19] | Plant response rating, Soybean [9, 20] | Plant response rating, Soybean [9, 21] | Soybean plant response rating [9, 22] | Rice plant response rating [10, 17] | Rice plant response rating [10, 25] | Sugarbeets plant response rating [11, 17] | Sugarbeets plant response rating [11, 19] | Plant response rating, Sugarbeets [11, 20] | Plant response rating, Sugarbeets [11, 21] | Sugarbeets plant response rating [11, 22] | Sugarbeets plant response rating [11, 23] | Rape plant response rating [12, 17] | Rape plant response rating [12, 18] | Rape plant response rating [12, 19] | Plant response rating, Rape [12, 20] | Plant response rating, Rape [12, 21] | Rape plant response rating [12, 22] | Rape plant response rating [12, 23] | Ducksalad plant response rating [13, 17] | Ducksalad plant response rating [13, 25] | Ducksalad plant response rating [13, 26] | Ducksalad plant response rating [13, 27] | Cocklebur plant response rating [14, 17] | Cocklebur plant response rating [14, 19] | Plant response rating, Cocklebur [14, 20] | Plant response rating, Cocklebur [14, 21] | Cocklebur plant response rating [14, 22] | Cocklebur plant response rating [14, 23] | Corn plant response rating [15, 17] | Corn plant response rating [15, 18] | Corn plant response rating [15, 19] | Plant response rating, Corn [15, 20] | Corn plant response rating [15, 23] | Corn plant response rating [15, 24] | Wild oats plant response rating [16, 17] | Wild oats plant response rating [16, 19] | Plant response rating, Wild oats [16, 20] | Wild oats plant response rating [16, 23]

Reference: US6737383B1, “Herbicidal oxadiazolidines” (priority 1999, dated 2004)
